Marks after values point to notes of the source that are not given here.
Tests used:
Format in all cases: in vivo
[1] = tested on: H-460 human non-small cell lung cancer; assay: H-460 human non-SCLC xenografts in nude mice, Experiment 2; conditions: 10 μg/day s.c.
Protocol: Male nude mice were implanted s.c. with 3 mm^3 pieces of H-460 human non-SCLC tumor tissue on both flanks. When tumors had grown to a mean volume of approximately 90 mm^3, the mice were randomly assigned into 12 experimental groups with 8 to 10 animals in each group and received single daily injections for 28 days as follows: 1. Control (vehicle solution); 2. JMR-132 (10 μg/day s.c.); 3. Peptide 11109 (5 μg/day s.c.); 4. Peptide 11113 (5 μg/day s.c.); 5. Peptide 11119 (5 μg/day s.c.); 6. Peptide 11209 (5 μg/day s.c.); 7. Peptide 11313 (5 μg/day s.c.); 8. Peptide 11408 (5 μg/day s.c.); 9. Peptide 11435 (5 μg/day s.c.); 10. Peptide 11459 (5 μg/day s.c.); 11. Peptide 11469 (5 μg/day s.c.); 12. Peptide 11491 (5 μg/day s.c.). Tumor volumes were measured once a week. The experiment was ended on day 28 by sacrificing the mice under Isoflurane anesthesia. Resulting tumors were cleaned, weighed, and snap-frozen until further analyses. Statistical analyses of the measurement results were done by two-tailed t-test, p<0.05 being considered significant. Data are presented as the means±S.E.

[2] = tested on: H-460 human non-small cell lung cancer; assay: H-460 human non-SCLC xenografts in nude mice, Experiment 3; conditions: 10 μg/day s.c., 28 days
Protocol: (§1) Male nude mice were implanted s.c. with 3 mm^3 pieces of H-460 human non-SCLC tumor tissue on both flanks. When tumors had grown to a mean volume of approximately 90 mm^3, the mice were randomly assigned into 8 experimental groups with 8 to 10 animals in each group and received single daily injections for 28 days as follows: 1. Control (vehicle solution); 2. JMR-132 (10 μg/day s.c.); 3. Peptide 11123 (5 μg/day s.c.); 4. Peptide 11125 (5 μg/day s.c.); 5. Peptide 11307 (5 μg/day s.c.); 6. Peptide 11317 (5 μg/day s.c.); 7. Peptide 11473 (5 μg/day s.c.); 8. Peptide 11485 (5 μg/day s.c.). Tumor volumes were measured once a week. The experiment was ended on day 28 by sacrificing the mice under Isoflurane anesthesia. Resulting tumors were cleaned, weighed, and snap-frozen until further analyses. Statistical analyses of the measurement results were done by two-tailed t-test, p<0.05 being considered significant.

[3] = tested on: Panc-1 human pancreatic cancer; assay: Panc-1 human pancreatic cancer xenografts in nude mice; conditions: 10 μg/day s.c. for 36 days
Protocol: Panc-1 cancers were transplanted s.c. into both flank areas of 60 female nude mice, and allowed to grow for 105 days before starting the treatment with GH-RH antagonists. The mice were randomly assigned into 3 experimental groups with 8 animals in each group and received single daily injections for 36 days as follows: 1. Control (vehicle solution); 2. JMR-132 (10 μg/day s.c.); 3. Peptide 11457 (10 μg/day s.c.). Tumor volumes were measured once a week. The experiment was ended on day 82 by sacrificing the mice under Isoflurane anesthesia. Resulting tumors were cleaned, weighed, and snap-frozen until further analyses. Statistical analyses of the measurement results were done by two-tailed t-test, p<0.05 being considered significant. Data are presented as the means±S.E.

[4] = tested on: H-460 human non-small cell lung cancer; assay: H-460 human non-SCLC xenografts in nude mice, Experiment 1; conditions: 10 μg/day s.c., 28 days; means±S.E.
Protocol: as §1, with “into 4” for “into 8”, “with” for “with 8 to”, “Peptide 1109 (10” for “Peptide 11123 (5”, “Peptide 11111 (10” for “Peptide 11125 (5 μg/day s.c.); 5. Peptide 11307 (5 μg/day s.c.); 6. Peptide 11317 (5 μg/day s.c.); 7. Peptide 11473 (5 μg/day s.c.); 8. Peptide 11485 (5”, “significant. Data are presented as the means±S.E.” for “significant.”

Which results are given for “[PhAc^0-Tyr^1, D-Arg^2, Cpa^6, Ala^8, Har^9, Tyr(Me)^10, His^11, Abu^15, His^20, Nle^27, D-Arg^28, Har^29]hGH-RH(1-29)NH2 [JMR-132, reference compound]”?
Tumor growth after 4 weeks (%) ([1]; 28 days, means±S.E.): 11537 ± 8215%; Inhibition (%) ([1]; after 4 weeks, negative = stimulation): (−46.14) %; Tumor growth inhibition after 4 weeks (%) [2]: 15.37%; Tumor weights ([3]; end of experiment day 82): 185 ± 105 mg; Tumor growth from day 1 to day 82 (%) ([3]; means±S.E.): 1730 ± 350%; Tumor volume on day 82 (mm^3) ([3]; means±S.E.): 511 ± 221* mm^3; Effect on the growth of Panc-1 human pancreatic cancers ([3]; observed for at least 82 days): less effective; Tumor growth after 4 weeks (%) [4]: 2404 ± 604%

Reference: US9260504B2, “N- and C-terminal substituted antagonistic analogs of GH-RH” (University of Miami, priority 2008, dated 2016)
